Measurements: publication PMC7580722, “Design of new disubstituted imidazo[1,2-b]pyridazine derivatives as selective Haspin inhibitors. Synthesis, binding mode and anticancer biological evaluation” (Journal of Enzyme Inhibition and Medicinal Chemistry, 2020)

Legend:
RnDYRK1A = experiment: DYRK1A kinase assay; type: biochemical, Rn (rat); settings: SI = IC50 kinase X/IC50 Haspin
Procedure: Values are IC50 expressed in µM and calculated from dose–response curves (each point on the curves was performed in triplicate). Selectivity indexes (SI; in brackets) are calculated as follows: SI = IC50 kinase X/IC50 Haspin. ND: not determined. *IC50 values obtained using the ADP-Glo methodology (see Experimental section, Supplementary Material). […]
The reaction was carried out as described in general procedure A using 4 (0.150 g, 0.58 mmol, 1 equiv.), 2-aminopyrimidine-5-boronic acid (0.122 g, 0.88 mmol, 1.5 equiv.) and Cs2CO3 (0.575 g, 1.75 mmol, 3 equiv.). The […]
The reaction was carried out as described in general procedure A using 4 (0.100 g, 0.39 mmol, 1 equiv.), 1-naphthaleneboronic acid (0.083g, 0.47 mmol, 1.2 equiv.) and Cs2CO3 (0.381 g, 1.17 mmol, 3 equiv.). The crude […]
Recombinant protein kinases were expressed and purified from E. coli (HsHaspin kinase domain aa470-798, HsCdk5/p25, RnDYRK1A kinase domain aa1-499, HsPIM1, MmCLK1) or baculovirus/Sf9 cells (HsCdk2/Cyclin A, HsCdk9/Cyclin T). […] The wet filter-bound radioactivity was determined in the presence of 20 µl scintillation fluid (GE healthcare) with a TopCount® Scintillation and Luminescence Counter (PerkinElmer). IC50 values were calculated from dose-response curves […]

HsCDK1 = target: T1, HsCDK1 (Homo sapiens, UniProt P06493); experiment: CDK1 kinase assay; type: biochemical
T1 construct: purchased ProQinase
T1 sequence (P06493 whole entry): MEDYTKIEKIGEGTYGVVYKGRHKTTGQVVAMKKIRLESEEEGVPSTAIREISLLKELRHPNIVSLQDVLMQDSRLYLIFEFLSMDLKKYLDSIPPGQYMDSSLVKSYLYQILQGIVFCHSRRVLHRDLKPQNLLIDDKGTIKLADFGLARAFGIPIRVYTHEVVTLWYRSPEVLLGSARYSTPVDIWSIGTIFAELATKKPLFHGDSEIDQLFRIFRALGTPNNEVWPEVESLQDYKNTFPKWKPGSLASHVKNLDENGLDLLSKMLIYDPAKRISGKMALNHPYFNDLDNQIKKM
T1 sequence (P14635 whole entry partner): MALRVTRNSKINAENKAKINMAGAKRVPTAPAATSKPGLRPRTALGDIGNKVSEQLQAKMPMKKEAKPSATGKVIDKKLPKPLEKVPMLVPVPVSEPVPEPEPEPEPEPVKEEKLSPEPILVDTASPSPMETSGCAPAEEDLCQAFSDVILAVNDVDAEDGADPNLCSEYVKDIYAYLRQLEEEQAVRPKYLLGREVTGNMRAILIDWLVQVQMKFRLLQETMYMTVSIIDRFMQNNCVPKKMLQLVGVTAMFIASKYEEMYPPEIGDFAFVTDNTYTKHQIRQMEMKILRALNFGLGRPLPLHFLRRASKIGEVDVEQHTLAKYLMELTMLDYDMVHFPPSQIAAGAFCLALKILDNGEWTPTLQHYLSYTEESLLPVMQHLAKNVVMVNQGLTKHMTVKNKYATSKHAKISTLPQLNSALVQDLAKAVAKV
Procedure: We therefore tested our compounds on two obvious candidates, HsCDK1 and HsPLK1 (Polo-like_kinase 1) both required for mitotic entry[50]
(§1) Values are IC50 expressed in µM and calculated from dose–response curves (each point from the curves was performed in duplicate). NR: not relevant. […]
(§2) Recombinant protein kinases were expressed and purified from E. coli (HsHaspin kinase domain aa470-798, HsCdk5/p25, RnDYRK1A kinase domain aa1-499, HsPIM1, MmCLK1) or baculovirus/Sf9 cells (HsCdk2/Cyclin A, HsCdk9/Cyclin T). Native SscCK1δ /ε and SscGSK3α/β were purified from pig brain whereas HsPlk1, HsCdk1 and HsAurora B were purchased from ProQinase and SignalChem respectively. Kinase assays were performed in specific buffers and substrates for each kinase tested in the presence of 15 µM [γ-33P] ATP (3,000 Ci/mmol, 10 mCi/ml; PerkinElmer) in a final volume of 30 µl as previously reported 51. After 30 min incubation at 30°C, the reaction mix was spotted onto GE healthcare P81 phosphocellulose paper using a FilterMate Harvester (PerkinElmer), and the filter was extensively washed with a 1% phosphoric acid solution. The wet filter-bound radioactivity was determined in the presence of 20 µl scintillation fluid (GE healthcare) with a TopCount® Scintillation and Luminescence Counter (PerkinElmer). IC50 values were calculated from dose-response curves

HsPLK1 = target: T2, HsPLK1 (Homo sapiens, UniProt P53350); experiment: PLK1 kinase assay; type: biochemical; settings: Table 4
T2 construct: purchased ProQinase
T2 sequence (P53350 whole entry): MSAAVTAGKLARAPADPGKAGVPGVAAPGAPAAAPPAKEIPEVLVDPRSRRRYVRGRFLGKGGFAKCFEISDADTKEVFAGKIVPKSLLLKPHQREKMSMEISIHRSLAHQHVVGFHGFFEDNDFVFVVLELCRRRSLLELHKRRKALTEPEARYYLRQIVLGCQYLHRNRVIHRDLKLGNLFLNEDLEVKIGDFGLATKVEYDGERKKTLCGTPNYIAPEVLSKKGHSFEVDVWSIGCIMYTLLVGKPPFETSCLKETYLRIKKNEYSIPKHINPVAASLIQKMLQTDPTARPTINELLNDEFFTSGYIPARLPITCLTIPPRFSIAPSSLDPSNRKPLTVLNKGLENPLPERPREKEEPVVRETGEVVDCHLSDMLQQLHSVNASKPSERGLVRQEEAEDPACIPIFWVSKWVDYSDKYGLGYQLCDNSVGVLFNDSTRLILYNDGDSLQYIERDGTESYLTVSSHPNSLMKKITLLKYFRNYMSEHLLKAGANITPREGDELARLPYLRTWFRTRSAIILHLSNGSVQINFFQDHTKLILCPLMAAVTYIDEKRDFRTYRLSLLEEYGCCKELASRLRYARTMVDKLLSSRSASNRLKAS
Procedure: . We therefore tested our compounds on two obvious candidates, HsCDK1 and HsPLK1 (Polo-like_kinase 1) both required for mitotic entry[50] (Table 4).
as §1, §2

RPE-1 = experiment: Cell viability, monolayer (2D), MTS assay; type: cell-based; settings: Homo sapiens, 48 h
HCT116 = experiment: Cell viability, monolayer (2D), MTS assay; type: cell-based; settings: Homo sapiens, HCT-116, 48 h
HBL100 = experiment: Cell viability, monolayer (2D), MTS assay; type: cell-based; settings: Homo sapiens, HBL-100, 48 h
U-2 OS spheroids = experiment: Spheroid (3D) viability, CellTiter-Glo; type: cell-based, human; settings: 5 µM, Figure 4(B)
[1] = system: Haspin activity (H3T3ph) in U-2 OS cells; experiment: In-cell Haspin activity, H3T3ph immunofluorescence; type: cell-based, human; settings: 24 h
U-2 OS cells = experiment: Scratch wound cell migration assay (IncuCyte); type: cell-based, human; settings: 0.6 µM, 0.5% FBS, normalised against DMSO control (100%)

selectivity for DYRK1A vs Haspin (RnDYRK1A): 50 fold
SI CDK1/Haspin (HsCDK1; SI = IC50 CDK1/IC50 Haspin): 392
IC50 (HsCDK1; Table 4, read-out: IC50 HsCDK1): 2.35 µM
IC50 (HsPLK1): > 10 µM
EC50 (HCT116): > 10 µM
Compound: c1cc2[nH]ncc2cc1-c1cnc2ccc(OC[C@@H]3CNCCO3)nn12 [Compound 21]
EC50 (RPE-1): 4.6 µM
EC50 (HBL100): > 10 µM
U-2 OS spheroid remaining viability (U-2 OS spheroids; 2 days): no effects
viability at 5 µM (U-2 OS spheroids; Homo sapiens, U2OS, 240 h, 10 days, read-out: U-2 OS spheroid viability): 69%
H3T3ph signal remaining in prometaphase cells (% of ctrl) ([1]; 0.5 µM): 2.4%
inhibition at 0.05 µM ([1]; Homo sapiens, U2OS, 0.05 µM, read-out: inhibition of cellular Haspin activity): > 80%
normalised wound closure after 24 h (U-2 OS cells): around 100%
